Assay results: US5892029A, “3-hydroxy-2(1H)-pyridinone chelating agents” (priority 1997, dated 1999)
Read-outs that look alike come from different tables or passages of the source.

Experiments:
[1] = 30 μmol/kg i.p. at 1 h; reported previously (footnote e); cited from earlier work
[2] = type: in vivo, mice; conditions: for body weight / plasma urea N: mean ± SD
Procedure: The test of acute toxicity of these novel ligands was carried out as follows. […] The ligand was dissolved in 0.5 to 1.0 ml of saline at pH 7 to 8. After a period of observation, the mice were killed, selected tissues were removed and fixed for histopathological examination,and unusual findings at autopsy were recorded.

[3] = Liquid/liquid extraction of Pu(IV) from aqueous solution (Tables 7 and 8)
Procedure: Liquid/liquid extractions were performed with the radioactive plutonium isotope ^242 Pu at the Lawrence Livermore National Laboratory's Glenn T. Seaborg Institute for Transactinium Science, Livermore, Calif. The aqueous phase contained ^242 Pu, while the organic phases contained 3,2-HOPO ligands at 2-5 mM concentration. Kinetic studies were the primary method used to determine the efficacy of the specific ligand in organic solvent. Generally, five microcentrifuge tubes were prepared with the same organic and aqueous phases, and shaken with a vortex-style mixer for 1, 5, 10, and 20 minutes. After mixing, an aliquot of each phase was pipetted from the tube into a scintillation vial, mixed with a scintillation cocktail, and scintillation counted to determine the amount of the radioactive species present in each phase after extraction.

[4] = protocol I: 100 μmol/kg × 10 daily i.p., 11 d
[5] = protocol I: 100 μmol/kg × 10 daily i.p., 21 d
[6] = protocol II: 500 μmol/kg × 2 in 8 h i.p., 8 d
[7] = octanol, 0.10M aqueous, 1.0 min
[8] = octanol, 0.10M aqueous, 5.0 min
[9] = octanol, 0.10M aqueous, 10.0 min
[10] = octanol, 0.10M aqueous, 20.0 min
[11] = octanol, 5.0M aqueous, 10.0 min
[12] = octanol, 5.0M aqueous, 20.0 min

Row | SMILES | 238Pu excreta: feces and GI contents [1] | 238Pu excreta: urine 0-24 h [1] | 238Pu in kidneys at 24 h [1] | 238Pu in liver at 24 h [1] | 238Pu in skeleton at 24 h [1] | 238Pu in soft tissue at 24 h [1] | 238Pu in whole body at 24 h [1] | % Pu(IV) Extracted ([3]; MIBK, 0.10M aqueous, 1.0 min) [%] | Partition Coefficient ([3]; MIBK, 0.10M aqueous, 1.0 min) | % Pu(IV) Extracted ([3]; MIBK, 0.10M aqueous, 5.0 min) [%] | Partition Coefficient ([3]; MIBK, 0.10M aqueous, 5.0 min) | % Pu(IV) Extracted ([3]; MIBK, 0.10M aqueous, 10.0 min) [%] | Partition Coefficient ([3]; MIBK, 0.10M aqueous, 10.0 min) | % Pu(IV) Extracted ([3]; MIBK, 0.10M aqueous, 20.0 min) [%] | Partition Coefficient ([3]; MIBK, 0.10M aqueous, 20.0 min) | % Pu(IV) Extracted ([3]; MIBK, 5.0M aqueous, 1.0 min) [%] | Partition Coefficient ([3]; MIBK, 5.0M aqueous, 1.0 min) | % Pu(IV) Extracted ([3]; MIBK, 5.0M aqueous, 5.0 min) [%] | Partition Coefficient ([3]; MIBK, 5.0M aqueous, 5.0 min) | % Pu(IV) Extracted ([3]; MIBK, 5.0M aqueous, 10.0 min) [%] | also measured
1 | CC(=O)N(O)CCCCCNC(=O)CCC(=O)N(O)CCCCCNC(=O)CCC(=O)N(O)CCCCCNC(=O)c1cccc(=O)n1O [DFO-(1,2-HOPO)] | 46.7% of injected ^238 Pu | 9.5% of injected ^238 Pu | 0.1% of injected ^238 Pu | 5.1 ± 2.2% of injected ^238 Pu | 6.0 ± 0.5% of injected ^238 Pu | 2.3 ± 0.5% of injected ^238 Pu | 13 ± 2.9% of injected ^238 Pu |  |  |  |  |  |  |  |  |  |  |  |  |  | 
2 | CC(=O)N(O)CCCCCNC(=O)CCC(=O)N(O)CCCCCNC(=O)CCC(=O)N(O)CCCCCNC(=O)c1ccn(C)c(=O)c1O [DFO-Me-3,2-HOPO] | 26.4% of injected ^238 Pu | 21% of injected ^238 Pu | 3.0% of injected ^238 Pu | 13 ± 3.5% of injected ^238 Pu | 17 ± 2.4% of injected ^238 Pu | 19 ± 3.0% of injected ^238 Pu | 53 ± 3.4% of injected ^238 Pu |  |  |  |  |  |  |  |  |  |  |  |  |  | 
3 | Cn1ccc(C(=O)NCCN(CCNC(=O)c2ccn(C)c(=O)c2O)CCN(CCNC(=O)c2ccn(C)c(=O)c2O)CCNC(=O)c2ccn(C)c(=O)c2O)c(O)c1=O [H(2,2)-Me-3,2-HOPO, N,N,N',N'-tetrakis[(3-hydroxy-1-methyl-2-oxo-1,2-dihydropyridin-4-yl)carboxamido-ethyl]-ethylenediamine] |  |  |  |  |  |  |  |  |  |  |  |  |  |  |  |  |  |  |  |  | body weight [2, 4]: 92 ± 6 percent control; plasma urea N [2, 4]: 223 ± 28 percent control; no. of survivors ([2]; protocol I: 100 μmol/kg × 10 daily i.p., 11 d, of 5 mice): 5; body weight [2, 5]: 87 ± 9 percent control; plasma urea N [2, 5]: 225 ± 188 percent control; no. of survivors ([2]; protocol I: 100 μmol/kg × 10 daily i.p., 21 d, of 5 mice): 5; body weight [2, 6]: 94 ± 6 percent control; plasma urea N [2, 6]: 169 ± 10 percent control; no. of survivors ([2]; protocol II: 500 μmol/kg × 2 in 8 h i.p., 8 d, of 19 (TREN) or 10 (H(2,2)) mice): 3
4 | O=C(NCc1cc(CNC(=O)c2cccc(=O)n2O)cc(CNC(=O)c2cccc(=O)n2O)c1)c1cccc(=O)n1O [ME-(1,2-HOPO)] | 43% of injected ^238 Pu | 9.6% of injected ^238 Pu | 1.8% of injected ^238 Pu | 18 ± 6.3% of injected ^238 Pu | 17 ± 2.5% of injected ^238 Pu | 10 ± 1.8% of injected ^238 Pu | 47 ± 9.4% of injected ^238 Pu |  |  |  |  |  |  |  |  |  |  |  |  |  | 
5 | CCCCCCCCCCNC(=O)c1ccn(C)c(=O)c1O [Me-2-HOPO-Decylamide] |  |  |  |  |  |  |  | 98.2 ± 4.5 | 53.63 ± 1.60 | 95.9 ± 4.4 | 23.40 ± 1.14 | 97.7 ± 4.5 | 42.43 ± 1.43 | 93.2 ± 4.3 | 13.63 ± 0.82 | 97.9 ± 4.5 | 46.00 ± 1.48 | 97.9 ± 4.5 | 46.62 ± 1.43 | 95.8 ± 4.4 | Partition Coefficient ([3]; MIBK, 5.0M aqueous, 10.0 min): 22.87 ± 1.07; % Pu(IV) Extracted ([3]; MIBK, 5.0M aqueous, 20.0 min): 81.9 ± 3.8%; Partition Coefficient ([3]; MIBK, 5.0M aqueous, 20.0 min): 4.52 ± 0.35; % Pu(IV) Extracted [3, 7]: 68.9 ± 3.3%; Partition Coefficient [3, 7]: 2.22 ± 0.19; % Pu(IV) Extracted [3, 8]: 96.2 ± 4.5%; Partition Coefficient [3, 8]: 25.39 ± 1.12; % Pu(IV) Extracted [3, 9]: 95.2 ± 4.4%; Partition Coefficient [3, 9]: 19.71 ± 1.00; % Pu(IV) Extracted [3, 10]: 92.4 ± 4.3%; Partition Coefficient [3, 10]: 12.11 ± 0.75; % Pu(IV) Extracted ([3]; octanol, 5.0M aqueous, 1.0 min): 98.3 ± 4.6%; Partition Coefficient ([3]; octanol, 5.0M aqueous, 1.0 min): 56.64 ± 1.58; % Pu(IV) Extracted ([3]; octanol, 5.0M aqueous, 5.0 min): 96.4 ± 4.5%; Partition Coefficient ([3]; octanol, 5.0M aqueous, 5.0 min): 26.98 ± 1.13; % Pu(IV) Extracted [3, 11]: 93.6 ± 4.4%; Partition Coefficient [3, 11]: 14.74 ± 0.83; % Pu(IV) Extracted [3, 12]: 88.3 ± 4.1%; Partition Coefficient [3, 12]: 7.51 ± 0.53
6 | CCCCCCCCNC(=O)c1ccn(C)c(=O)c1O [Me-2-HOPO-Octylamide] |  |  |  |  |  |  |  | 95.6 ± 4.4 | 21.90 ± 1.09 | 91.8 ± 4.3 | 11.22 ± 0.73 | 96.8 ± 4.5 | 30.07 ± 1.26 | 96.5 ± 4.5 | 27.56 ± 0.76 | 98.8 ± 4.6 | 79.22 ± 1.71 | 98.2 ± 4.6 | 53.99 ± 1.54 | 96.4 ± 4.5 | Partition Coefficient ([3]; MIBK, 5.0M aqueous, 10.0 min): 26.82 ± 1.18; % Pu(IV) Extracted ([3]; MIBK, 5.0M aqueous, 20.0 min): 83.9 ± 3.9%; Partition Coefficient ([3]; MIBK, 5.0M aqueous, 20.0 min): 5.20 ± 0.40; % Pu(IV) Extracted [3, 7]: 94.4 ± 4.4%; Partition Coefficient [3, 7]: 16.83 ± 0.89; % Pu(IV) Extracted [3, 8]: 94.5 ± 4.5%; Partition Coefficient [3, 8]: 17.10 ± 1.12; % Pu(IV) Extracted [3, 9]: 92.1 ± 4.3%; Partition Coefficient [3, 9]: 11.71 ± 0.72; % Pu(IV) Extracted [3, 10]: 91.2 ± 4.2%; Partition Coefficient [3, 10]: 10.32 ± 0.67; % Pu(IV) Extracted ([3]; octanol, 5.0M aqueous, 1.0 min): 97.8 ± 4.1%; Partition Coefficient ([3]; octanol, 5.0M aqueous, 1.0 min): 44.22 ± 1.43; % Pu(IV) Extracted ([3]; octanol, 5.0M aqueous, 5.0 min): 97.4 ± 4.5%; Partition Coefficient ([3]; octanol, 5.0M aqueous, 5.0 min): 36.91 ± 1.30; % Pu(IV) Extracted [3, 11]: 95.2 ± 4.4%; Partition Coefficient [3, 11]: 19.78 ± 0.98; % Pu(IV) Extracted [3, 12]: 91.4 ± 4.3%; Partition Coefficient [3, 12]: 10.69 ± 0.67
